# Where a name gives a salt, the structure may show the parent alone. Read-outs that look alike come from different tables or passages of the source.
# How the values were obtained:
# [1] = molecular target: T1, human NTCP (Homo sapiens, UniProt Q14973); test: Screening fluorescent competitive Myrcludex B-FITC binding assay (96-well, 10 µM drug)
# T1 sequence (Q14973 1-349): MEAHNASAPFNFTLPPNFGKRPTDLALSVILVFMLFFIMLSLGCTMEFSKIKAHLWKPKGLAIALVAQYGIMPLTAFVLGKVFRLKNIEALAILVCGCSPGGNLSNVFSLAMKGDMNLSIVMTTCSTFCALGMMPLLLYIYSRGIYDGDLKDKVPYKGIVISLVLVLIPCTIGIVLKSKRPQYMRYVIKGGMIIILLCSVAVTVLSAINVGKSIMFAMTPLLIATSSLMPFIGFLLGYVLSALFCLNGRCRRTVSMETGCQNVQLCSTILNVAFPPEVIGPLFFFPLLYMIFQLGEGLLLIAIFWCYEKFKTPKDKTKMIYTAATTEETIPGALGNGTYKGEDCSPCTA
# [2] = molecular target: T1, human NTCP; test: Screening taurocholate uptake assay (96-well, [14C]taurocholate, 10 µM drug)
# [3] = Prestwick library screen, Myrcludex B-FITC binding, 10 µM drug
# [4] = Prestwick library screen, taurocholate uptake, 10 µM drug
# [5] = ranking score beside the functional and binding assay B-scores of the screen
# [6] = Prestwick library screen, 10 µM drug, B-score of Myrcludex B-FITC binding
# [7] = Prestwick library screen, 10 µM drug, B-score of taurocholate uptake
# [8] = combined ranking from functional and binding assay B-scores
# [9] = screen, 10 µM drug, Myrcludex B-FITC binding
# [10] = combined ranking from functional and binding screening assays
# [11] = screen, 10 µM drug, taurocholate uptake
structure (smiles),measurement,setting,value
CC1NC(=O)NC1=O (stereo not drawn) [Methylhydantoin-5-(L)],B-score binding assay,[1]; [3],-0.07
same,B-score functional assay,[2]; [4],0.737
same,Ranking score,[2]; [5],746.749
"C[C@H]1C[C@@H]2[C@H]([C@@H](O)C[C@@]3(C)[C@H]2CC[C@]3(O)C(=O)CO)[C@@]2(C)C=CC(=O)C=C12 [Methylprednisolone, 6-alpha]",B-score binding assay,[1]; [6],0.779
same,B-score functional assay,[2]; [7],0.477
same,Ranking score,[2]; [8],941.018
Cc1cc2c(cc1S(N)(=O)=O)S(=O)(=O)CCC2 [Meticrane],B-score binding assay,[1]; [6],-0.016
same,B-score functional assay,[2]; [7],3.166
same,Ranking score,[2]; [8],878.911
Cc1ccccc1N1C(=O)c2cc(S(N)(=O)=O)c(Cl)cc2NC1C (stereo not drawn) [Metolazone],B-score binding assay,[1]; [6],1.32
same,B-score functional assay,[2]; [7],0.67
same,Ranking score,[2]; [8],1031.7
CC(=O)Nc1c(I)c(C(=O)N[C@H]2C(O)O[C@H](CO)[C@@H](O)[C@@H]2O)c(I)c(N(C)C(C)=O)c1I (stereo partly drawn) [Metrizamide],B-score binding assay,[1]; [3],0.138
same,B-score functional assay,[2]; [4],0.395
same,Ranking score,[2]; [5],816.081
Cc1ncc([N+](=O)[O-])n1CCO [Metronidazole],B-score binding assay,[1]; [6],0
same,B-score functional assay,[2]; [7],1.996
same,Ranking score,[2]; [8],878.042
CC(C)(C(=O)c1cccnc1)c1cccnc1 [Metyrapone],B-score binding assay,[1]; [3],-0.063
same,B-score functional assay,[2]; [4],0.78
same,Ranking score,[2]; [5],759.235
"C[C@@]1(O)CCOC(=O)C1 [Mevalonic-D, L acid lactone]",B-score binding assay,[1]; [6],0.161
same,B-score functional assay,[2]; [7],0.673
same,Ranking score,[2]; [8],868.822
CC[C@H](C)C(=O)O[C@H]1CCC=C2C=C[C@H](C)[C@H](CC[C@@H]3C[C@@H](O)CC(=O)O3)[C@H]21 [Mevastatin],B-score binding assay,[1]; [9],1.164
same,Ranking score,[2]; [10],355.331
same,B-score functional assay,[2]; [11],-2.175
CN1CCN2c3ccccc3Cc3ccccc3C2C1.Cl (stereo not drawn) [Mianserine hydrochloride],B-score binding assay,[1]; [3],0.761
same,B-score functional assay,[2]; [4],0.041
same,Ranking score,[2]; [5],825.955
COc1ccc(OC)c(C(O)CNC(=O)CN)c1 (stereo not drawn) [Midodrine hydrochloride],B-score binding assay,[1]; [3],2.033
same,B-score functional assay,[2]; [4],-0.28
same,Ranking score,[2]; [5],735.356
CCN(CC)C(=O)C1(c2ccccc2)CC1CN.Cl (stereo not drawn) [Milnacipran hydrochloride],B-score binding assay,[1]; [6],0.152
same,B-score functional assay,[2]; [7],1.822
same,Ranking score,[2]; [8],955.465
Cc1[nH]c(=O)c(C#N)cc1-c1ccncc1 [Milrinone],B-score binding assay,[1]; [6],0.945
same,B-score functional assay,[2]; [7],0.094
same,Ranking score,[2]; [8],877.639
Cc1cc(-c2ccccc2)nnc1NCCN1CCOCC1 [Minaprine dihydrochloride],B-score binding assay,[1]; [3],-0.039
same,B-score functional assay,[2]; [4],1.278
same,Ranking score,[2]; [5],814.509
CN(C)c1ccc(O)c2c1C[C@H]1C[C@H]3[C@H](N(C)C)C(O)=C(C(N)=O)C(=O)[C@@]3(O)C(O)=C1C2=O [Minocycline hydrochloride],B-score binding assay,[1]; [3],0.626
same,B-score functional assay,[2],0.089
same,Ranking score,[2]; [5],838.821
Clc1ccc(C(c2ccccc2Cl)C(Cl)Cl)cc1 (stereo not drawn) [Mitotane],B-score binding assay,[1]; [9],2.009
same,Ranking score,[2]; [10],352.681
same,B-score functional assay,[2]; [11],-2.371
O=C1c2c(O)ccc(O)c2C(=O)c2c(NCCNCCO)ccc(NCCNCCO)c21 [Mitoxantrone dihydrochloride],B-score binding assay,[1]; [3],-0.161
same,B-score functional assay,[2]; [4],4.449
same,Ranking score,[2]; [5],807.326
CN(c1nccc(=O)[nH]1)C1CCN(c2nc3ccccc3n2Cc2ccc(F)cc2)CC1 [Mizolastine],B-score binding assay,[1]; [6],0.089
same,B-score functional assay,[2]; [7],0.906
same,Ranking score,[2]; [8],877.518
O=C(NCCN1CCOCC1)c1ccc(Cl)cc1 [Moclobemide],B-score binding assay,[1]; [3],-0.149
same,B-score functional assay,[2]; [4],1.399
same,Ranking score,[2]; [5],766.363
CCc1c(C)[nH]c2c1C(=O)C(CN1CCOCC1)CC2 (stereo not drawn) [Molindone hydrochloride],B-score binding assay,[1]; [9],0.009
same,Ranking score,[2]; [10],412.337
same,B-score functional assay,[2]; [11],-0.958
Cc1ccsc1/C=C/C1=NCCCN1C [Morantel tartrate],B-score binding assay,[1]; [9],-0.484
same,Ranking score,[2]; [10],381
same,B-score functional assay,[2]; [11],-0.483
Cl.N=C(N=C(N)N)N1CCOCC1 [Moroxidine hydrochloride],B-score binding assay,[1]; [6],1.496
same,B-score functional assay,[2]; [7],1.373
same,Ranking score,[2]; [8],1132.99
COc1c(N2C[C@@H]3CCCN[C@@H]3C2)c(F)cc2c(=O)c(C(=O)O)cn(C3CC3)c12 [Moxifloxacin],B-score binding assay,[1]; [9],-1.402
same,Ranking score,[2]; [10],388.165
same,B-score functional assay,[2]; [11],0.4
CC(=O)Oc1cc(C(C)C)c(OCCN(C)C)cc1C.Cl [Moxisylyte hydrochoride],B-score binding assay,[1]; [9],-0.183
same,Ranking score,[2]; [10],375.319
same,B-score functional assay,[2]; [11],-0.84
COc1nc(C)nc(Cl)c1N=C1NCCN1 [Moxonidine],B-score binding assay,[1]; [9],-0.494
same,Ranking score,[2]; [10],427.083
same,B-score functional assay,[2]; [11],-0.211
COc1ccc2cc(CCC(C)=O)ccc2c1 [Nabumetone],B-score binding assay,[1]; [9],-1.377
same,Ranking score,[2]; [10],286.691
same,B-score functional assay,[2]; [11],-0.236
CC(C)(C)NCC(O)COc1cccc2c1CC(O)C(O)C2 (stereo not drawn) [Nadolol],B-score binding assay,[1]; [6],1.627
same,B-score functional assay,[2]; [7],0.292
same,Ranking score,[2]; [8],986.853
CN(C/C=C/c1ccccc1)Cc1cccc2ccccc12 [Naftifine hydrochloride],B-score binding assay,[1]; [3],-0.234
same,B-score functional assay,[2]; [4],0.726
same,Ranking score,[2]; [5],685.775
COc1ccccc1N1CCN(CC(O)COc2cccc3ccccc23)CC1.Cl.Cl (stereo not drawn) [Naftopidil dihydrochloride],B-score binding assay,[1]; [9],1.879
same,Ranking score,[2]; [10],412.912
same,B-score functional assay,[2]; [11],-1.853
Oc1ccc2c3c1O[C@H]1[C@@H](O)CC[C@@]4(O)[C@@H](C2)N(CC2CCC2)CC[C@]314 [Nalbuphine hydrochloride],B-score binding assay,[1],-0.132
same,B-score functional assay,[2],-1.445
same,Ranking score,[2],312.49
C=CCN1CC[C@]23c4c5ccc(O)c4O[C@H]2C(=O)CC[C@@]3(O)[C@H]1C5 [Naloxone hydrochloride],B-score binding assay,[1],0
same,Ranking score,[2]; combined ranking of functional and binding screening assays,578.749
same,B-score functional assay,"[2]; screening taurocholate uptake, 10 µM drug",-0.111
C[C@]12CC[C@H]3[C@@H](CCC4=CC(=O)CC[C@@H]43)[C@@H]1CC[C@@H]2O [Nandrolone],B-score binding assay,[1],0.982
same,B-score functional assay,[2],0.05
same,Ranking score,[2],852.366
COc1ccc2cc([C@H](C)C(=O)O)ccc2c1 [Naproxen],B-score binding assay,[1]; [9],-0.298
same,Ranking score,[2]; [10],422.428
same,B-score functional assay,[2]; [11],-0.433
CC(C)[C@H]1CC[C@H](C(=O)N[C@H](Cc2ccccc2)C(=O)O)CC1 [Nateglinide],B-score binding assay,[1]; [9],0.322
same,Ranking score,[2]; [10],461.181
same,B-score functional assay,[2]; [11],-1.02
CN1CCOC(c2ccccc2)c2ccccc2C1 (stereo not drawn) [Nefopam hydrochloride],B-score binding assay,[1]; [6],0.293
same,B-score functional assay,[2]; [7],0.705
same,Ranking score,[2]; [8],906.685
NC[C@@H]1O[C@H](O[C@H]2[C@@H](O)[C@H](O[C@@H]3[C@@H](O)[C@H](N)C[C@H](N)[C@H]3O[C@H]3O[C@H](CN)[C@@H](O)[C@H](O)[C@H]3N)O[C@@H]2CO)[C@H](N)[C@@H](O)[C@@H]1O.O=S(=O)(O)O [Neomycin sulfate],B-score binding assay,[1]; [6],0.524
same,B-score functional assay,[2]; [7],0.497
same,Ranking score,[2]; [8],912.995
CN(C)C(=O)Oc1cccc([N+](C)(C)C)c1 [Neostigmine bromide],B-score binding assay,[1]; [3],0.229
same,B-score functional assay,[2]; [4],-0.02
same,Ranking score,[2]; [5],703.343
O=C(O)c1cccnc1 [Niacin],B-score binding assay,[1]; [3],0.206
same,B-score functional assay,[2]; [4],0.004
same,Ranking score,[2]; [5],716.877
O=C(CCNNC(=O)c1ccncc1)NCc1ccccc1 [Nialamide],B-score binding assay,[1]; [6],0.697
same,B-score functional assay,[2]; [7],0.331
same,Ranking score,[2]; [8],907.486
COC(=O)C1=C(C)NC(C)=C(C(=O)OCCN(C)Cc2ccccc2)C1c1cccc([N+](=O)[O-])c1 (stereo not drawn) [Nicardipine hydrochloride],B-score binding assay,[1]; [9],-1.032
same,Ranking score,[2]; [10],378.616
same,B-score functional assay,[2]; [11],-0.022
NC(=O)c1cccnc1 [Nicotinamide],B-score binding assay,[1]; [6],0.079
same,B-score functional assay,[2]; [7],1.452
same,Ranking score,[2]; [8],911.172
O=C(O)c1cccnc1Nc1cccc(C(F)(F)F)c1 [Niflumic acid],B-score binding assay,[1]; [3],-0.054
same,B-score functional assay,[2]; [4],0.166
same,Ranking score,[2]; [5],675.036
O=C(N/N=C/c1ccc([N+](=O)[O-])o1)c1ccc(O)cc1 [Nifuroxazide],B-score binding assay,[1]; [6],0.661
same,B-score functional assay,[2]; [7],2.774
same,Ranking score,[2]; [8],1088.47
CC1CS(=O)(=O)CCN1/N=C/c1ccc([N+](=O)[O-])o1 (stereo not drawn) [Nifurtimox],B-score binding assay,[1]; [9],-0.222
same,Ranking score,[2]; [10],381.366
same,B-score functional assay,[2]; [11],-0.767
CC1(C)NC(=O)N(c2ccc([N+](=O)[O-])c(C(F)(F)F)c2)C1=O [Nilutamide],B-score binding assay,[1]; [6],0.756
same,B-score functional assay,[2]; [7],5.352
same,Ranking score,[2]; [8],1119.7

# Reference: publication PMC5681660, “Reduced hepatitis B and D viral entry using clinically applied drugs as novel inhibitors of the bile acid transporter NTCP” (Scientific Reports, 2017)
